Laboratory results as given in patent publication US9695129B2, “Parasiticidal compositions comprising benzimidazole derivatives, methods and uses thereof” (MERIAL INC., priority 2012, dated 2017).

System: adult F. hepatica
Experiment: In vitro test on adult F. hepatica (viability scale, effective concentration)
Parameters: species or system Fasciola hepatica
Details: Fasciola hepatica, 72 h, read-out: Effective in vitro concentration
Procedure: Representative compounds of formula (I), formula (II), and formula (III) were tested in vitro against F. hepatica as follows. Adult F. hepatica (fluke) were collected from infected bovine livers obtained from a local abattoir (Basel, Switzerland). The worms were quickly washed with 0.9% (w/v) NaCl and placed in 6 or 12-well plates (Costar). Culture medium in each well contained RPMI 1640 (Gibco) at 37° C., which was supplemented with antibiotics (50 μg/ml streptomycin and 50 IU/ml penicillin; Gibco) and 80 μg/ml of a haemin solution. The haemin solution was prepared as follows: 5 mg haemin was dissolved in 1 ml of 0.1M aqueous solution of NaOH, and 3.95 ml of PBS (pH=7.4) and 0.05 ml of 1M HCl were added to adjust the pH to 7.1-7.4 (Keiser and Morson, 2008). Cultures were kept at 37° C. in an atmosphere of 5% CO2. To monitor the temporal effects of test compounds in vitro, 3 flukes were incubated for 72 h in the presence of 50 or 100 μg/ml of each test compound. At 24, 48, and 72 h, worms were examined using a dissecting microscope. For the adult worms, a viability scale ranging from 4 (normal movements) to 1 (death; no movement observed for two min using a microscope) was used.
(§1) Table 1 lists representative compounds of formula (I) of the present invention and their effective in vitro concentrations against F. hepatica. All compounds were tested in vitro on the adult stage of F. hepatica as described above. Each data point refers to at least two independent experiments. For Table 1, R2 is H, R4 is Cl and R5 is H.
as §1, with “2” for “1”, “(II)” for “(I)”, “2 compounds, the 2-position of the benzimidazole ring” for “1, R2”, “methylthio, R6” for “H, R4”, “H” for “Cl”, “R9” for “R5”
as §1, with “3” for “1”, “(III)” for “(I)”, “3, the 2-position of the benzimidazole ring” for “1, R2”, “trifluoromethylthio, R10” for “H, R4”, “H” for “Cl”, “R13” for “R5”

Row | Molecule | minimal effective concentration [µg/mL]
1 | FC(F)(F)Sc1nc2cc(Cl)c(-c3ccc(Cl)cc3)cc2[nH]1 [Compound 102, 6-chloro-5-(4-chlorophenyl)-2-trifluoromethylthiobenzimidazole] | 5
2 | FC(F)(F)Sc1nc2cc(Cl)c(-c3cccc(Cl)c3)cc2[nH]1 [Compound 103, 6-chloro-5-(3-chlorophenyl)-2-trifluoromethylthiobenzimidazole] | 5
3 | FC(F)(F)c1nc2cc(Cl)c(-c3cc(Cl)cc(Cl)c3)cc2[nH]1 [Compound 247, 6-chloro-5-(3,5-dichlorophenyl)-2-trifluoromethylbenzimidazole] | 5
4 | FC(F)(F)c1nc2cc(Cl)c(-c3cc(Cl)cc(Cl)c3Cl)cc2[nH]1 [Compound 261, 6-chloro-5-(2,3,5-trichlorophenyl)-2-trifluoromethylbenzimidazole] | 5
5 | Fc1ccc(Oc2cc3[nH]c(C(F)(F)C(F)(F)C(F)(F)F)nc3cc2Cl)c(F)c1 [Compound 279, 5-chloro-6-(2,4-difluorophenoxy)-2-(heptafluoropropyl)-1H-1,3-benzodiazole] | < 5
6 | Fc1ccc(Oc2cc3[nH]c(C(F)(F)C(F)(F)C(F)(F)F)nc3cc2Cl)cc1 [Compound 284, 5-chloro-6-(4-fluorophenoxy)-2-(heptafluoropropyl)-1H-1,3-benzodiazole] | 5

Same assay, conditions: Fasciola hepatica; Table 1, formula (I); adult flukes incubated up to 72 h; at least two independent experiments; read-out: Effective in vitro concentration

Row | Molecule | minimal effective concentration [µg/mL]
7 | FC(F)(F)c1nc2cc(Cl)c(-c3ccc(Cl)c(Cl)c3)cc2[nH]1 [Compound 258, 6-chloro-5-(3,4-dichlorophenyl)-2-trifluoromethylbenzimidazole] | 5
8 | FC(F)(F)c1nc2cc(Cl)c(-c3ccc(Cl)cc3Cl)cc2[nH]1 [Compound 260, 6-chloro-5-(2,4-dichlorophenyl)-2-trifluoromethylbenzimidazole] | 5
9 | FC(F)(F)C(F)(F)c1nc2cc(Cl)c(-c3cccc(Cl)c3Cl)cc2[nH]1 [Compound 262-100, 5-chloro-6-(2,3-dichlorophenyl)-2-(pentafluoroethyl)-1H-1,3-benzodiazole] | 10
10 | FC(F)(F)c1nc2cc(Cl)c(Oc3ccc(Cl)cc3Cl)cc2[nH]1 [Compound 275, 5-chloro-6-(2,4-dichlorophenoxy)-2-(trifluoromethyl)-1H-1,3-benzodiazole] | 10
11 | FC(F)(F)C(F)(F)c1nc2cc(Cl)c(Oc3ccc(Cl)cc3Cl)cc2[nH]1 [Compound 276, 5-chloro-6-(2,4-dichlorophenoxy)-2-(pentafluoroethyl)-1H-1,3-benzodiazole] | < 5
12 | Fc1ccc(Oc2cc3[nH]c(C(F)(F)F)nc3cc2Cl)c(F)c1 [Compound 277, 5-chloro-6-(2,4-difluorophenoxy)-2-(trifluoromethyl)-1H-1,3-benzodiazole] | 10
13 | Fc1ccc(Oc2cc3[nH]c(C(F)(F)C(F)(F)F)nc3cc2Cl)c(F)c1 [Compound 278, 5-chloro-6-(2,4-difluorophenoxy)-2-(pentafluoroethyl)-1H-1,3-benzodiazole] | < 5
14 | Fc1ccc(-c2cc3[nH]c(C(F)(F)F)nc3cc2Cl)cc1 [Compound 280, 5-chloro-6-(4-fluorophenyl)-2-(trifluoromethyl)-1H-1,3-benzodiazole] | 20
15 | Fc1ccc(-c2cc3[nH]c(C(F)(F)C(F)(F)F)nc3cc2Cl)cc1 [Compound 281, 5-chloro-6-(4-fluorophenyl)-2-(pentafluoroethyl)-1H-1,3-benzodiazole] | 5
16 | Fc1ccc(Oc2cc3[nH]c(C(F)(F)C(F)(F)F)nc3cc2Cl)cc1 [Compound 283, 5-chloro-6-(4-fluorophenoxy)-2-(pentafluoroethyl)-1H-1,3-benzodiazole] | < 2.5
17 | FC(F)(F)c1ccc(Oc2cc3[nH]c(C(F)(F)F)nc3cc2Cl)cc1 [Compound 286, 5-chloro-2-(trifluoromethyl)-6-[4-(trifluoromethyl)phenoxy]-1H-1,3-benzodiazole] | 20
18 | FC(F)(F)c1ccc(Oc2cc3[nH]c(C(F)(F)C(F)(F)F)nc3cc2Cl)cc1 [Compound 287, 5-chloro-2-(pentafluoroethyl)-6-[4-(trifluoromethyl)phenoxy]-1H-1,3-benzodiazole] | 50
19 | FC(F)(F)c1ccc(Oc2cc3[nH]c(C(F)(F)C(F)(F)C(F)(F)F)nc3cc2Cl)cc1 [Compound 288, 5-chloro-2-(heptafluoropropyl)-6-[4-(trifluoromethyl)phenoxy]-1H-1,3-benzodiazole] | 20
20 | FC(F)(F)c1ccc(-c2cc3[nH]c(C(F)(F)C(F)(F)F)nc3cc2Cl)cc1 [Compound 289, 5-chloro-2-(pentafluoroethyl)-6-[4-(trifluoromethyl)phenyl]-1H-1,3-benzodiazole] | < 2.5
21 | FC(F)(F)c1ccc(Oc2cc3[nH]c(C(F)(F)C(F)(F)F)nc3cc2Cl)c(Cl)c1 [Compound 296, 5-chloro-6-[2-chloro-4-(trifluoromethyl)phenoxy]-2-(pentafluoroethyl)-1H-1,3-benzodiazole] | < 2.5
22 | FC(F)(F)c1ccc(-c2cc3[nH]c(C(F)(F)F)nc3cc2Cl)c(C(F)(F)F)c1 [Compound 301, 6-[2,4-bis(trifluoromethyl)phenyl]-5-chloro-2-(trifluoromethyl)-1H-1,3-benzodiazole] | < 10
23 | FC(F)(F)c1ccc(-c2cc3[nH]c(C(F)(F)C(F)(F)F)nc3cc2Cl)c(C(F)(F)F)c1 [Compound 302, 6-[2,4-bis(trifluoromethyl)phenyl]-5-chloro-2-(pentafluoroethyl)-1H-1,3-benzodiazole] | < 2.5
24 | FC(F)(F)c1nc2cc(Cl)c(-c3ccc(Cl)cc3C(F)(F)F)cc2[nH]1 [Compound 304, 5-chloro-6-[4-chloro-2-(trifluoromethyl)phenyl]-2-(trifluoromethyl)-1H-1,3-benzodiazole] | 20
25 | FC(F)(F)c1cc(Cl)ccc1-c1cc2[nH]c(C(F)(F)C(F)(F)F)nc2cc1Cl [Compound 305, 5-chloro-6-[4-chloro-2-(trifluoromethyl)phenyl]-2-(pentafluoroethyl)-1H-1,3-benzodiazole] | 20
26 | FC(F)(F)c1cc(Cl)ccc1-c1cc2[nH]c(C(F)(F)C(F)(F)C(F)(F)F)nc2cc1Cl [Compound 306, 5-chloro-6-[4-chloro-2-(trifluoromethyl)phenyl]-2-(heptafluoropropyl)-1H-1,3-benzodiazole] | 20
27 | FC(F)(F)c1ccc(-c2cc3[nH]c(C(F)(F)F)nc3cc2Cl)c(Cl)c1 [Compound 307, 5-chloro-6-[2-chloro-4-(trifluoromethyl)phenyl]-2-(trifluoromethyl)-1H-1,3-benzodiazole] | < 2.5
28 | FC(F)(F)c1ccc(-c2cc3[nH]c(C(F)(F)C(F)(F)F)nc3cc2Cl)c(Cl)c1 [Compound 308, 5-chloro-6-[2-chloro-4-(trifluoromethyl)phenyl]-2-(pentafluoroethyl)-1H-1,3-benzodiazole] | < 10
29 | FC(F)(F)c1ccc(-c2cc3[nH]c(C(F)(F)C(F)(F)C(F)(F)F)nc3cc2Cl)c(Cl)c1 [Compound 309, 5-chloro-6-[2-chloro-4-(trifluoromethyl)phenyl]-2-(heptafluoropropyl)-1H-1,3-benzodiazole] | 20

Same assay, conditions: Fasciola hepatica; Table 2, formula (II); adult flukes incubated up to 72 h; at least two independent experiments; read-out: Effective in vitro concentration

Row | Molecule | minimal effective concentration [µg/mL]
30 | CSc1nc2cc(Cl)c(Oc3ccccc3Br)cc2[nH]1 [Compound 014, 6-chloro-5-(2-bromophenoxy)-2-methylthiobenzimidazole] | 50
31 | CSc1nc2cc(Cl)c(Oc3cccc(C)c3C)cc2[nH]1 [Compound 019, 6-chloro-5-(2,3-dimethylphenoxy)-2-methylthiobenzimidazole] | 20
32 | CCCCCCc1cc2[nH]c(SC)nc2cc1Cl [Compound 024, 6-chloro-5-hexyl-2-methylthiobenzimidazole] | 50

Same assay, conditions: Fasciola hepatica; Table 3, formula (III); adult flukes incubated up to 72 h; at least two independent experiments; read-out: Effective in vitro concentration

Row | Molecule | minimal effective concentration [µg/mL]
33 | FC(F)(F)Sc1nc2cc(Cl)c(Oc3cccc(Cl)c3Cl)cc2[nH]1 [Compound 049, 6-chloro-5-(2,3-dichlorophenoxy)-2-trifluoromethylthiobenzimidazole] | 10

Same assay, conditions: Table 3, formula (III); adult flukes incubated up to 72 h; at least two independent experiments

Row | Molecule | Effective in vitro concentration [µg/mL]
34 | 6-chloro-5-(2-butyl)-cyclopropyl-2-trifluoromethylthiobenzimidazole [Compound 108] | 10
